Like-named read-outs stand apart in the source and are kept apart here.
Assays:
Assay type in all cases: cell-based
JMAR cell line = assay: Promega CellTiter-Glo (CTG) luminescent assay, JMAR; details: 72 hr, mean ± standard deviation
Experimental: (§1) b) Promega CellTiter-Glo (CTG) Luminescent Assay
(§2) Antiproliferative activities against MDA-MB-468LN, MDA1986 and JMAR cell lines were performed with 384-well white plates with the Promega CellTiter-Glo (CTG) luminescent assay with 72 hr compound treatment. Data analysis was performed using GraphPad Prism. Selected data were further checked with MTS/PMS cell viability assay with 96-well plates, which correlated well with Promega CellTiter-Glo luminescent assay.

SKBr3 cells = assay: MTS/PMS cell viability assay, SKBr3; details: Homo sapiens, SK-BR-3
Experimental: (§3) a) MTS/PMS Cell Viability Assay (SKBr3 and MCF-7 Cells)
(§4) Cells were maintained in a 1:1 mixture of Advanced DMEM/F12 (Gibco) supplemented with non-essential amino acids, L-glutamine (2 mM), streptomycin (500 μg/mL), penicillin (100 units/mL), and 10% FBS. Cells were grown to confluence in a humidified atmosphere (37° C., 5% CO2), seeded (2000/well, 100 μL) in 96-well plates, and allowed to attach overnight. Compound at varying concentrations in DMSO (1% DMSO final concentration) was added, and cells were returned to the incubator for 72 hr. At 72 hr, the number of viable cells was determined using an MTS/PMS cell proliferation kit (Promega) per the manufacturer's instructions. Cells incubated in 1% DMSO were used at 100% proliferation, and values were adjusted accordingly. IC50 values were calculated from separate experiments performed in triplicate using GraphPad Prism.

PC3-MM2 cells = assay: Sulforhodamine B assay, PC3-MM2; details: Homo sapiens, PC3MM2, mean ± standard deviation
Experimental: (§5) c) Sulforhodamine B Assay
(§6) The sulforhodamine B assay is used to measure drug-induced cytotoxicity and cell proliferation for large-scale drug-screening applications. Its principle is based on the ability of the protein dye sulforhodamine B to bind electrostatically on pH dependent protein basic amino acid residues of trichloroacetic acid-fixed cells. The aim is to evaluate samples showing selective growth inhibition or cell killing of particular tumor cell lines.
(§7) The SRB assay is performed by treating cells using a 10 point dose-response curve. The cells are fixed with trichloroacetic acid solution and stained with sulforhodamine B dye. The stained cells are then solubilized with 10 mM Tris buffer and read for absorbance at 565 nm.
(§8) Percentage growth is calculated at each of the drug concentration levels using the absorbance raw data.
(§9) Percentage growth inhibition is calculated as: [(Ti−Tz)/(C−Tz)]×100 for concentrations for which Ti≥Tz. [(Ti−Tz)/(Tz)]×100 for concentrations for which Ti<Tz.
(§10) Ti=Absorbance of wells at a given drug concentration level.
(§11) Tz=Absorbance time zero wells
(§12) C=Absorbance of untreated wells (media and cells only)
(§13) After growth inhibition values have been calculated, the data is plotted on Graphpad Prism software. Data is entered and plotted on a sigmoidal dose-response curve using non-linear regression.

MCF-7 cells = assay: MTS/PMS cell viability assay, MCF-7; details: Homo sapiens, MCF7, 72 hr, mean ± standard deviation, read-out: IC50 MCF-7
Experimental: as §3, §4

MDA1986 cell line = assay: Promega CellTiter-Glo (CTG) luminescent assay, MDA1986
Experimental: as §1, §2

MDA-MB-468LN cell line = assay: Promega CellTiter-Glo (CTG) luminescent assay, MDA-MB-468LN; details: Homo sapiens, 72 hr, mean ± standard deviation
Experimental: as §1, §2

LNCaP cells = assay: Sulforhodamine B assay, LNCaP; details: Homo sapiens, mean ± standard deviation
Experimental: as §5, §6, §7, §8, §9, §10, §11, §12, §13

[1] = Table 1 coumarin-based triazoles
[2] = Table 1 coumarin-based triazoles, 72 hr, mean ± standard deviation, at least two experiments in triplicate, read-out: IC50 SKBr3
[3] = Table 1 coumarin-based triazoles, 72 hr, mean ± standard deviation, read-out: IC50 MDA1986
[4] = Table 2 biphenyl triazole analogues
[5] = Table 2 biphenyl triazole analogues, 72 hr, mean ± standard deviation, read-out: IC50 SKBr3
[6] = Table 2 biphenyl triazole analogues, 72 hr, mean ± standard deviation, read-out: IC50 MDA1986

SMILES	IC50 (JMAR cell line; [1]) [µM]	IC50 (SKBr3 cells; [2]) [µM]	IC50 (PC3-MM2 cells; [1]) [µM]	IC50 (MCF-7 cells; [1]) [µM]	IC50 (MDA1986 cell line; [3]) [µM]	IC50 (MDA-MB-468LN cell line; [1]) [µM]	IC50 (LNCaP cells; [1]) [µM]	IC50 (SKBr3 cells; read-out: IC50 against SKBr3 cell line) [µM]	IC50 (MDA1986 cell line; read-out: IC50 against MDA1986 cell line) [µM]	IC50 (JMAR cell line; [4]) [µM]	IC50 (SKBr3 cells; [5]) [µM]	IC50 (PC3-MM2 cells; [4]) [µM]	IC50 (MCF-7 cells; [4]) [µM]	IC50 (MDA1986 cell line; [6]) [µM]	IC50 (MDA-MB-468LN cell line; [4]) [µM]	IC50 (LNCaP cells; [4]) [µM]
COc1ccc(Cn2cc(C(=O)Nc3cc4ccc(OC5CCN(C)CC5)c(C)c4oc3=O)nn2)cc1 [4j, 1-(4-Methoxybenzyl)-N-(8-methyl-7-((1-methylpiperidin-4-yl)oxy)-2-oxo-2H-chromen-3-yl)-1H-1,2,3-triazole-4-carboxamide]	6.7	1.31 ± 0.2	7.85 ± 0.42	1.42 ± 0.14	2.6 ± 0.3	3.4 ± 1.27	> 100									
Cc1c(OC2CCN(C)CC2)ccc2cc(NC(=O)c3cn(Cc4ccc(C(C)(C)C)cc4)nn3)c(=O)oc12 [4k, 1-(4-tert-Butylbenzyl)-N-(8-methyl-7-((1-methylpiperidin-4-yl)oxy)-2-oxo-2H-chromen-3-yl)-1H-1,2,3-triazole-4-carboxamide]	0.58 ± 0.14	0.45 ± 0.03	2.37	1.22 ± 0.07	0.34 ± 0.09	0.74 ± 0.22	1.84									
Cc1c(OC2CCN(C)CC2)ccc2cc(NC(=O)c3cn(Cc4ccc([N+](=O)[O-])cc4)nn3)c(=O)oc12 [4l, 1-(4-Nitrobenzyl)-N-(8-methyl-7-((1-methylpiperidin-4-yl)oxy)-2-oxo-2H-chromen-3-yl)-1H-1,2,3-triazole-4-carboxamide]	0.26 ± 0.34	0.38	2.49 ± 0.32	0.64	0.18 ± 0.22	0.81 ± 0.23	1.28 ± 0.71									
Cc1c(OC2CCN(C)CC2)ccc2cc(NC(=O)c3cn(Cc4ccc(F)cc4)nn3)c(=O)oc12 [4m, 1-(4-Fluorobenzyl)-N-(8-methyl-7-((1-methylpiperidin-4-yl)oxy)-2-oxo-2H-chromen-3-yl)-1H-1,2,3-triazole-4-carboxamide]	2.38 ± 5.38	1.08 ± 0.01	8.82 ± 1.14	1.34 ± 0.19	1.77 ± 4.1	2.6 ± 6.12	3.31									
Cc1c(OC2CCN(C)CC2)ccc2cc(NC(=O)c3cn(Cc4cccc(Cl)c4)nn3)c(=O)oc12 [4n, 1-(3-Chlorobenzyl)-N-(8-methyl-7-((1-methylpiperidin-4-yl)oxy)-2-oxo-2H-chromen-3-yl)-1H-1,2,3-triazole-4-carboxamide]	0.19 ± 0.1	1.06 ± 0.01	6 ± 1.13	1.68 ± 0.01	0.23 ± 0.22	1.14 ± 1.17	3.03 ± 0.05									
Cc1c(OC2CCN(C)CC2)ccc2cc(NC(=O)c3cn(Cc4ccccc4Cl)nn3)c(=O)oc12 [4p, 1-(2-Chlorobenzyl)-N-(8-methyl-7-((1-methylpiperidin-4-yl)oxy)-2-oxo-2H-chromen-3-yl)-1H-1,2,3-triazole-4-carboxamide]	3.7 ± 0.85	1.3 ± 0.07	6.66 ± 5.44	0.99 ± 0.08	3.2 ± 1.37	2.1 ± 0.52	> 100									
Cc1c(OC2CCN(C)CC2)ccc2cc(NC(=O)c3cn(CCc4ccccc4)nn3)c(=O)oc12 [4r, N-(8-methyl-7-((1-methylpiperidin-4-yl)oxy)-2-oxo-2H-chromen-3-yl)-1-phenethyl-1H-1,2,3-triazole-4-carboxamide]	0.74 ± 0.86	0.13 ± 0.01	1.4 ± 0.04	0.55 ± 0.01	0.11 ± 0.3	0.99 ± 0.1	2.36 ± 0.53	0.13	~0.11							
CN1CCC(Oc2ccc(-c3ccc(NC(=O)c4cn(-c5ccccc5)nn4)cc3)cc2)CC1 [5a, N-(4′-((1-methylpiperidin-4-yl)oxy)-[1,1′-biphenyl]-4-yl)-1-phenyl-1H-1,2,3-triazole-4-carboxamide]										2.2 ± 0.24	1.14 ± 0.1	4.26 ± 5.59	1.44 ± 0.18	1.3 ± 0.09	0.83 ± 0.16	3.89 ± 1.09
CN1CCC(Oc2ccc(-c3ccc(NC(=O)c4cn(CCc5ccccc5)nn4)cc3)cc2)CC1 [5c, N-(4′-((1-methylpiperidin-4-yl)oxy)-[1,1′-biphenyl]-4-yl)-1l-phenethyl-1H-1,2,3-triazole-4-carboxamide]										0.58 ± 0.46	0.19 ± 0.02	0.83 ± 0.34	0.38 ± 0.1	0.1 ± 0.23	0.36 ± 0.04	0.43 ± 0.22
CN1CCC(Oc2ccc(-c3ccc(NC(=O)c4cn(Cc5ccc(Cl)cc5)nn4)cc3)cc2)CC1 [5d, 1-(4-Chlorobenzyl)-N-(4′-((1-methylpiperidin-4-yl)oxy)-[1, 1′-biphenyl]-4-yl)-1H-1,2,3-triazole-4-carboxamide]										2.3 ± 0.82	0.32 ± 0.1	0.66 ± 0.21	0.44 ± 0.04	1.3 ± 0.37	0.74 ± 0.19	1.59 ± 0.78
CN1CCC(Oc2ccc(-c3ccc(NC(=O)c4cn(Cc5ccc(Br)cc5)nn4)cc3)cc2)CC1 [5e, 1-(4-Bromobenzyl)-N-(4′-((1-methylpiperidin-4-yl)oxy)-[1,1′-biphenyl]-4-yl)-1H-1,2,3-triazole-4-carboxamide]										7.8	0.49 ± 0.03	19.9 ± 27.9	0.56 ± 0.04	3.1 ± 0.87	2.8 ± 0.61	0.54 ± 0.12
CN1CCC(Oc2ccc(-c3ccc(NC(=O)c4cn(Cc5ccc(C(C)(C)C)cc5)nn4)cc3)cc2)CC1 [5h, 1-(4-tert-Butylbenzyl)-N-(4′-((1-methylpiperidin-4-yl)oxy)-[1,1′-biphenyl]-4-yl)-1H-1,2,3-triazole-4-carboxamide]										3.49 ± 2.05	3.72 ± 0.68	> 100	10.5 ± 0.4	2.34 ± 1.81	2.61 ± 0.76	1.01 ± 1.39
CN1CCC(Oc2ccc(-c3ccc(NC(=O)c4cn(Cc5ccc([N+](=O)[O-])cc5)nn4)cc3)cc2)CC1 [5i, 1-(4-Nitrobenzyl)-N-(4′-((1-methylpiperidin-4-yl)oxy)-[1,1′-biphenyl]-4-yl)-1H-1,2,3-triazole-4-carboxamide]										0.21 ± 0.35	0.45 ± 0.04	1.03 ± 0.16	0.55 ± 0.01	0.19 ± 0.17	0.56 ± 0.25	0.6 ± 0.34

From patent publication US9994556B2, “Triazole modified coumarin and biphenyl amide-based HSP90 inhibitors” (THE UNIVERSITY OF KANSAS, priority 2014, dated 2018)
